# Experimental data as given in patent US12240844B2 (Voronoi, Inc., priority 2019, dated 2025).
# How the values were obtained:
# [1] = biological target: T1, human GST-DYRK1A (full length) (Homo sapiens, UniProt Q13627); assay: GST-DYRK1A enzyme inhibition, ADP-Glo kinase assay; format: biochemical; conditions: read-out: DYRK1 IC50
# T1 construct: purified human GST-DYRK1A (full length, Thermo scientifics) enzyme; GST; purchased Thermo scientifics
# In short: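 Full-length human GST-DYRK1A (10 ng) incubated with 10 uM ATP and specific substrate for 1 h at 25° C in 40 mM Tris-HCl pH 7.4, 20 mM MgCl2, 0.5 mg/mL BSA, 50 uM DTT. ADP formation read by ADP-Glo luminescence; IC50 (nM) versus solvent control, triplicate.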
# human GST-CLK1 (129-end) = biological target: T2, human GST-CLK1 (129-end) (Homo sapiens, UniProt P49759); assay: GST-CLK1 enzyme inhibition, ADP-Glo kinase assay; format: biochemical; conditions: ATP 10 uM
# T2 construct: purified human GST-CLK1 (129-end, Signalchem) enzyme; GST; purchased Signalchem
# T2 sequence (P49759 129-484 limits assumed): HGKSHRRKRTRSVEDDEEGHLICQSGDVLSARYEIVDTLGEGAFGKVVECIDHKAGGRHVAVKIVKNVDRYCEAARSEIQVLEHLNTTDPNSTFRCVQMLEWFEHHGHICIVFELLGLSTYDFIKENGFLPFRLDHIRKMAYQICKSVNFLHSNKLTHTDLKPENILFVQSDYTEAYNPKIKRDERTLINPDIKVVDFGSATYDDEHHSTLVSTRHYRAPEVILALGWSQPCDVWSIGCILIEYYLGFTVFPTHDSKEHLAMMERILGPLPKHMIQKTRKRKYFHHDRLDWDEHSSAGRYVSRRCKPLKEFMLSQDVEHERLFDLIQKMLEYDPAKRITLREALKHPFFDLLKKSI
# In short: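 GST-CLK1 (129-end, 3 ng) reacted with 10 uM ATP and substrate in 40 mM Tris-HCl pH 7.4, 20 mM MgCl2, 0.5 mg/mL BSA, 50 uM DTT, 1 h at 25° C. ADP-Glo luminescence normalised to solvent control; IC50 from triplicate data.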
# SHP-77 = SHP-77 cancer cell proliferation inhibition (Cell Titer-Glo); format: cell-based; conditions: Homo sapiens, SHP77, SHP-77 small cell lung cancer cell line, 72 hours
# In short: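 GI50 comes from CellTiter-Glo luminescence, read 10 min after reagent addition at RT, following 72 h compound treatment. Eleven concentrations were used (⅓ steps, highest 10 μM final) on 2000 cells/well. MDA-MB-231 and MDA-MB-468 were grown in DMEM, SHP-77 in RPMI.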
# LRRK2 = LRRK2 (Homo sapiens, UniProt Q5S007); assay: LRRK2 enzyme inhibition, ADP-Glo kinase assay; format: biochemical; parameters: purchased Invitrogen PR8604B
# Sequence of LRRK2 (Q5S007 970-2527 limits assumed): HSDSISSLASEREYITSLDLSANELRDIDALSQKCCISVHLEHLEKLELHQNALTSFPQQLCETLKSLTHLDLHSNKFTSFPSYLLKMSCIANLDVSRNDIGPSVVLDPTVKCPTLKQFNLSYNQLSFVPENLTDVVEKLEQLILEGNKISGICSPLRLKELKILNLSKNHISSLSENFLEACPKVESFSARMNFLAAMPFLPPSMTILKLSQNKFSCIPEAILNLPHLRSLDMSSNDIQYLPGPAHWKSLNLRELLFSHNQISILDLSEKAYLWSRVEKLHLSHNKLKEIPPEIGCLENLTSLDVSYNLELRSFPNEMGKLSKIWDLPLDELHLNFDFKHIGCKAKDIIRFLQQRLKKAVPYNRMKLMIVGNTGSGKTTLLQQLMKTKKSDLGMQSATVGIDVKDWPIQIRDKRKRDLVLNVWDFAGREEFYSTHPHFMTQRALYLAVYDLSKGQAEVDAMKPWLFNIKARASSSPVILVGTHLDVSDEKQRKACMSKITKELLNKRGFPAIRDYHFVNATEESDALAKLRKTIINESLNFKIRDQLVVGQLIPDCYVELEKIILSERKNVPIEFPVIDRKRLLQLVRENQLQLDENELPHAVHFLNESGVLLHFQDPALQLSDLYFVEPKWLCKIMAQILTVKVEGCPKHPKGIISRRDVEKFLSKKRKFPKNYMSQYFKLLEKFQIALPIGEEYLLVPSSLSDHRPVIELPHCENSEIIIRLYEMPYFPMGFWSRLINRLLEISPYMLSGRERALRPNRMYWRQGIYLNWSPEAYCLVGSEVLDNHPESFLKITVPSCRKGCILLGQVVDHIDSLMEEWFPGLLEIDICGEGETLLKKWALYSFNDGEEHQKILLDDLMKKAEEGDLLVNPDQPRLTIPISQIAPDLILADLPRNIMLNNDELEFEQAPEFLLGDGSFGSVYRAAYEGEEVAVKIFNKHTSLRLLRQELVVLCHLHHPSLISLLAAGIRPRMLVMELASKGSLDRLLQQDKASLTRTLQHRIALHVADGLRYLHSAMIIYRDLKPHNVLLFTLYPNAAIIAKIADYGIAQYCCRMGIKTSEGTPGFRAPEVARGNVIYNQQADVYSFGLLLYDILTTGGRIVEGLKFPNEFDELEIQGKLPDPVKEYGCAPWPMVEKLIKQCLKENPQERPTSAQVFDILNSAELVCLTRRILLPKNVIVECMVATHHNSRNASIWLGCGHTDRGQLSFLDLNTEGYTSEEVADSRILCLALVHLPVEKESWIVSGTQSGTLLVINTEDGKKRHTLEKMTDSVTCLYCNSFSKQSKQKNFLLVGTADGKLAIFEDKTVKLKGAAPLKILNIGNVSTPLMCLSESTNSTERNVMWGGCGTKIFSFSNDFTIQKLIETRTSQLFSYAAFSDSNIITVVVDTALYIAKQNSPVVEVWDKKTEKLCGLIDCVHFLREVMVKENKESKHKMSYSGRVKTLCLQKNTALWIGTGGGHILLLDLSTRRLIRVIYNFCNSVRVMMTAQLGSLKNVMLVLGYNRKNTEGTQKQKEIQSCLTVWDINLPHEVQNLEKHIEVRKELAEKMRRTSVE
# In short: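 Purified human LRRK2 (25 ng) in 40 mM Tris-HCl pH7.4, 20 mM MgCl2, 0.5 mg/ml BSA, 50 μM DTT with 10 μM ATP and substrate ([…]), 2 h at 25° C. Final compound 50 to 0.000001024 μM, 12-point dilution. ADP-Glo luminescence vs solvent control; IC50 (nM).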
# human DYRK1A and Tau = assay: Tau phosphorylation inhibition, ClariCELL Kinase Cell-Based Assay (Carnabio)
# In short: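 HEK293 cells transiently expressing human DYRK1A and Tau were exposed to compound, then lysed. Released Tau was captured on plate and its phosphorylation quantified by ELISA with a phospho-Tau-specific antibody.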
IC50 [1] [nM],IC50 (human GST-CLK1 (129-end)) [nM],GI50 (SHP-77) [nM],IC50 (LRRK2) [nM],Compound,inhibition at 0.25 µM (human DYRK1A and Tau) [%],inhibition at 0.5 µM (human DYRK1A and Tau) [%],inhibition at 1 µM (human DYRK1A and Tau) [%]
< 100,101 to 300,301 to 1000,101 to 300,"COCCNc1cc(Nc2ccc(P3(=O)CCN(C4CC4)CC3)cc2OC)nc2[nH]cc(C(F)(F)F)c12 [Example 207, 1-cyclopropyl-4-(3-methoxy-4-((4-((2-methoxyethyl)amino)-3-(trifluoromethyl)-1H-pyrrolo[2,3-b]pyridin-6-yl)amino)phenyl)-1,4-azaphosphinane 4-oxide]",,,
< 100,< 100,,< 100,"O=C(c1ccc(Nc2cc(NC3CC3)c3c(C(F)(F)F)c[nH]c3n2)c2c1CCO2)N1CCC(N2CCOCC2)CC1 [Example 92, (7-((4-(cyclopropylamino)-3-(trifluoromethyl)-1H-pyrrolo[2,3-b]pyridin-6-yl)amino)-2,3-dihydrobenzofuran-4-yl)(4-morpholinopiperidin-1-yl)methanone]",27.5,52.4,77.2
< 100,< 100,301 to 1000,< 100,"COc1cc(S(=O)(=O)N2CCC(N3CCOCC3)CC2)ccc1Nc1cc(NCCS(C)(=O)=O)c2c(C(F)(F)F)c[nH]c2n1 [Example 194, N^6-(2-methoxy-4-((4-morpholinopiperidin-1-yl)sulfonyl)phenyl)-N^4-(2-(methylsulfonyl)ethyl)-3-(trifluoromethyl)-1H-pyrrolo[2,3-b]pyridine-4,6-diamine]",,,
< 100,< 100,,< 100,"CNc1cc(Nc2ccc(C(=O)N3CC[C@H](N4CCOCC4)C3)c3c2OCC3)nc2[nH]cc(C(F)(F)F)c12 [Example 217, (S)-(7-((4-(methylamino)-3-(trifluoromethyl)-1H-pyrrolo[2,3-b]pyridin-6-yl)amino)-2,3-dihydrobenzofuran-4-yl)(3-morpholinopyrrolidin-1-yl)methanone]",50.2,60.6,84.5
< 100,< 100,301 to 1000,< 100,"CCNc1cc(Nc2ccc(C(=O)N3C[C@@H]4C[C@H]3CO4)c3c2OCCO3)nc2[nH]cc(C(F)(F)F)c12 [Example 44, ((1S,4S)-2-oxa-5-azabicyclo[2.2.1]heptan-5-yl)(8-((4-(ethylamino)-3-(trifluoromethyl)-1H-pyrrolo[2,3-b]pyridin-6-yl)amino)-2,3-dihydrobenzo[b] [1,4]dioxin-5-yl)methanone]",,,
,301 to 1000,51 to 100,< 100,"COc1cc(S(=O)(=O)N2CCC(N3CCOCC3)CC2)ccc1Nc1cc(C2CC2)c2c(C#N)c[nH]c2n1 [Example 228, 4-cyclopropyl-6-((2-methoxy-4-((4-morpholinopiperidin-1-yl)sulfonyl)phenyl)amino)-1H-pyrrolo[2,3-b]pyridine-3-carbonitrile]",,,
301 to 1000,301 to 1000,301 to 1000,< 100,"COc1cc(S(=O)(=O)N2CCOCC2)ccc1Nc1cc(C2CC2)c2c(C#N)c[nH]c2n1 [Example 227, 4-cyclopropyl-6-((2-methoxy-4-(morpholinosulfonyl)phenyl)amino)-1H-pyrrolo[2,3-b]pyridine-3-carbonitrile]",,,
< 100,101 to 300,301 to 1000,< 100,"CCNc1cc(Nc2ccc(P3(=O)CCN(C(C)=O)CC3)cc2OC)nc2[nH]cc(C(F)(F)F)c12 [Example 42, 1-(4-(4-((4-(ethylamino)-3-(trifluoromethyl)-1H-pyrrolo[2,3-b]pyridin-6-yl)amino)-3-methoxyphenyl)-4-oxido-1,4-azaphosphinan-1-yl)ethan-1-one]",,,
< 100,< 100,,< 100,"CNc1cc(Nc2ccc(C(=O)N3CC[C@@H](N4CCOCC4)C3)c3c2OCC3)nc2[nH]cc(C(F)(F)F)c12 [Example 214, (R)-(7-((4-(methylamino)-3-(trifluoromethyl)-1H-pyrrolo[2,3-b]pyridin-6-yl)amino)-2,3-dihydrobenzofuran-4-yl)(3-morpholinopyrrolidin-1-yl)methanone]",33.9,60.1,76.8
,< 100,,< 100,"O=C(c1ccc(Nc2cc(C3CC3)c3c(C(F)(F)F)c[nH]c3n2)c2c1CCO2)N1CCC(N2CCOCC2)CC1 [Example 93, (7-((4-cyclopropyl-3-(trifluoromethyl)-1H-pyrrolo[2,3-b]pyridin-6-yl)amino)-2,3-dihydrobenzofuran-4-yl)(4-morpholinopiperidin-1-yl)mthanone]",12,28.8,50.1
< 100,< 100,,< 100,"CCNc1cc(Nc2ccc(C(=O)N3CCC(N4CCOCC4)CC3)c3c2OCC3)nc2[nH]cc(C(F)(F)F)c12 [Example 90, (7-((4-(ethylamino)-3-(trifluoromethyl)-1H-pyrrolo[2,3-b]pyridin-6-yl)amino)-2,3-dihydrobenzofuran-4-yl)(4-morpholinopiperidin-1-yl)methanone]",23.3,51.7,70.3
,,101 to 300,,"CNc1cc(Nc2ccc(S(=O)(=O)N3CCC(N4CCOCC4)CC3)cc2OC)nc2[nH]cc(C(F)(F)F)c12 [Example 184, N^6-(2-methoxy-4-((4-morpholinopiperidin-1-yl)sulfonyl)phenyl)-N^4-methyl-3-(trifluoromethyl)-1H-pyrrolo[2,3-b]pyridine-4,6-diamine]",28.5,58.2,76.1
,301 to 1000,301 to 1000,301 to 1000,"COc1cc(S(=O)(=O)N2CCOCC2)ccc1Nc1cc(C2CC2)c2c(C(F)(F)F)c[nH]c2n1 [Example 222, 4-cyclopropyl-N-(2-methoxy-4-(morpholinosulfonyl)phenyl)-3-(trifluoromethyl)-1H-pyrrolo[2,3-b]pyridin-6-amine]",,,
< 100,< 100,,< 100,"CNc1cc(Nc2ccc(C(=O)N3CCC(N4CCOCC4)CC3)c3c2OCC3)nc2[nH]cc(C(F)(F)F)c12 [Example 234, (7-((4-(methylamino)-3-(trifluoromethyl)-1H-pyrrolo[2,3-b]pyridin-6-yl)amino)-2,3-dihydrobenzofuran-4-yl)(4-morpholinopiperidin-1-yl)methanone]",41.8,65.3,81.5
< 100,< 100,,< 100,"CCNc1cc(Nc2ccc(C(=O)N3CCN(C4COC4)CC3)c3c2OCCO3)nc2[nH]cc(C(F)(F)F)c12 [Example 173, (8-((4-(ethylamino)-3-(trifluoromethyl)-1H-pyrrolo[2,3-b]pyridin-6-yl)amino)-2,3-dihydrobenzo[b] [1,4]dioxin-5-yl)(4-(oxetan-3-yl)piperazin-1-yl)methanone]",5.2,28.2,46.4
301 to 1000,301 to 1000,301 to 1000,,"CCNc1cc(Nc2cc(F)c(S(=O)(=O)N3CCC(N4CCOCC4)CC3)cc2OC)nc2[nH]cc(C(F)(F)F)c12 [Example 266, N^4-ethyl-N^6-(5-fluoro-2-methoxy-4-((4-morpholinopiperidin-1-yl)sulfonyl)phenyl)-3-(trifluoromethyl)-1H-pyrrolo[2,3-b]pyridine-4,6-diamine]",,,
101 to 300,101 to 300,,101 to 300,"CCNc1cc(Nc2ccc(P3(=O)CCN(C4CCOCC4)CC3)cc2OC)nc2[nH]cc(C(F)(F)F)c12 [Example 94, 4-(4-((4-(ethylamino)-3-(trifluoromethyl)-1H-pyrrolo[2,3-b]pyridin-6-yl)amino)-3-methoxyphenyl)-1-(tetrahydro-2H-pyran-4-yl)-1,4-azaphosphinane 4-oxide]",22.2,30.5,53.2
< 100,< 100,,< 100,"CCNc1cc(Nc2ccc(C(=O)N3CCC(N4C[C@@H]5C[C@H]4CO5)CC3)c3c2OCC3)nc2[nH]cc(C(F)(F)F)c12 [Example 105, (4-((1S,4S)-2-oxa-5-azabicyclo[2.2.1]heptan-5-yl)piperidin-1-yl)(7-((4-(ethylamino)-3-(trifluoromethyl)-1H-pyrrolo[2,3-b]pyridin-6-yl)amino)-2,3-dihydrobenzofuran-4-yl)methanone]",60.2,74,92
